The results in this text go back to patent US20080188528A1, “Modulators of C3a receptor and methods of use thereof” (priority 2006, published 2008).

Each structure is given as a SMILES string. Counter-ions that a name gives are not always drawn.

This experiment deals with T1, human C3a receptor (C3aR) (Homo sapiens, UniProt Q16581).
T1 construct: expressed in transfected cells
T1 sequence (Q16581 1-482): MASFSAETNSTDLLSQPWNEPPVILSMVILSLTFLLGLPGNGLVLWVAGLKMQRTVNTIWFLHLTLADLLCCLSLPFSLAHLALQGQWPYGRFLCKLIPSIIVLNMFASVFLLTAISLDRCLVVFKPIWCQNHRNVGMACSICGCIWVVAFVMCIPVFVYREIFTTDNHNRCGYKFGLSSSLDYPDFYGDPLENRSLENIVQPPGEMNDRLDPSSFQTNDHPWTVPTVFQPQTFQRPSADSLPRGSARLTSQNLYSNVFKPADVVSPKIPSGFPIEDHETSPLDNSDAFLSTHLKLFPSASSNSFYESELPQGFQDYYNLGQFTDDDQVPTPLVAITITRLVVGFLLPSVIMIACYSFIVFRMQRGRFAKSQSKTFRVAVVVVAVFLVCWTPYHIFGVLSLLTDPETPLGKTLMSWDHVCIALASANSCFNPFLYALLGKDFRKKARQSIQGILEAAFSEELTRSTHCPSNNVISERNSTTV
Put plainly: Inhibition of human [125I]-C3a binding to human C3a receptor (SPA, membranes of HEK293 cells expressing recombinant C3aR). The following applies: 0.1 nM [125I]-C3a, 3 hours at room temperature; Table 1. On the procedure: Inhibition of human [^125I]-C3a binding to human C3a receptor
Binding of human [^125I]-C3a to human C3a receptor (C3aR) was done using cell membranes from HEK293 cells stably expressing recombinant C3aR, in a homogeneous scintillation proximity assay (SPA). The C3aR cell membranes were pre-coupled over-night at 4° C. to WGA-PVT SPA beads (Amersham) at a ratio of 10 μg cell membrane to 0.5 mg beads/assay. Assay was performed in 96-well microtiter Optiplates (Packard) by mixing coupled beads and 0.1 nM [^125I]-C3a (2200 Ci/mmol, Perkin Elmer Life Sciences), in a total volume of […] binding buffer (20 mM HEPES, pH 7.4, 125 mM NaCl, 5 mM KCl, 1 mM CaCl2, 1 mM MgCl2, 0.25% BSA, 0.2% CHAPS). Test compounds were diluted in DMSO and were tested for their inhibitory potential in the assay (final concentration≦1% DMSO). Incubation was done for 3 hours at room temperature followed by reading in a TopCount scintillation microplate reader. Non-specific binding was determined by adding 1 μM unlabeled C3a (Calbiochem) to the assay mixture. Calculation of the IC50 was done as above using a nonlinear least square fitting program, with Graphpad Prism.

Consider `N=C(N)NCCC[C@H](NC(=O)c1cccn(Cc2ccccc2)c1=O)C(=O)O` [Compound 1, (2S)-2-{[(1-benzyl-2-oxo-1,2-dihydropyridin-3-yl)carbonyl]amino}-5-carbamimidamidopentanoic acid•TFA], for which the IC50 fell in the range of 50 to 500 nM.

In the case of `N=C(N)NCCC[C@@H](NC(=O)c1cccn(Cc2ccccc2)c1=O)C(=O)O` [Compound 2, (2R)-2-{[(1-benzyl-2-oxo-1,2-dihydropyridin-3-yl)carbonyl]amino}-5-carbamimidamidopentanoic acid•TFA], the 50% inhibitory concentration (IC50) fell in the range of 500 to 20000 nM.

`N=C(N)NCCC[C@H](NC(=O)c1cccn(Cc2ccccc2Br)c1=O)C(=O)O` [Compound 3, (2S)-2-({[1-(2-bromobenzyl)-2-oxo-1,2-dihydropyridin-3-yl]carbonyl}amino)-5-carbamimidamidopentanoic acid•TFA]: the concentration for half-maximal inhibition (IC50) was < 50 nM.

As for `N=C(N)NCCC[C@H](NC(=O)c1cccn(Cc2cccc(Br)c2)c1=O)C(=O)O` [Compound 4, (2S)-2-({[1-(3-bromobenzyl)-2-oxo-1,2-dihydropyridin-3-yl]carbonyl}amino)-5-carbamimidamidopentanoic acid•TFA], the IC50 is < 50 nM.

As to `N=C(N)NCCC[C@H](NC(=O)c1cccn(Cc2ccc(Br)cc2)c1=O)C(=O)O` [Compound 5, (2S)-2-({[1-(4-bromobenzyl)-2-oxo-1,2-dihydropyridin-3-yl]carbonyl}amino)-5-carbamimidamidopentanoic acid•TFA], the IC50 was < 50 nM.

Take `CC(C)c1ccccc1Cn1cccc(C(=O)N[C@@H](CCCNC(=N)N)C(=O)O)c1=O` [Compound 6, (2S)-5-carbamimidamido-2-({[1-(2-isopropylbenzyl)-2-oxo-1,2-dihydropyridin-3-yl]carbonyl}amino)pentanoic acid•TFA]: the IC50 is 50 to 500 nM.

On to `CC(C)c1cccc(Cn2cccc(C(=O)N[C@@H](CCCNC(=N)N)C(=O)O)c2=O)c1` [Compound 7, (2S)-5-carbamimidamido-2-({[1-(3-isopropylbenzyl)-2-oxo-1,2-dihydropyridin-3-yl]carbonyl}amino)pentanoic acid•TFA], for which the concentration for half-maximal inhibition (IC50) lay within 50 to 500 nM.

On to `CC(C)c1ccc(Cn2cccc(C(=O)N[C@@H](CCCNC(=N)N)C(=O)O)c2=O)cc1` [Compound 8], for which the IC50 is < 50 nM.

As for `Cn1cccc(C(=O)N[C@@H](CCCNC(=N)N)C(=O)O)c1=O` [Compound 9, (2S)-5-carbamimidamido-2-{[(1-methyl-2-oxo-1,2-dihydropyridin-3-yl)carbonyl]amino}pentanoic acid•TFA], the half-maximal inhibitory concentration (IC50) was 500 to 20000 nM.

`N=C(N)NCCC[C@H](NC(=O)c1cccn(C2c3ccccc3-c3ccccc32)c1=O)C(=O)O` [Compound 10, (2S)-5-carbamimidamido-2-({[1-(9H-fluoren-9-yl)-2-oxo-1,2-dihydropyridin-3-yl]carbonyl}amino)pentanoic acid•TFA]: the IC50 lay within 50 to 500 nM.

`N=C(N)NCCC[C@H](NC(=O)c1cccn(CC(c2ccccc2)c2ccccc2)c1=O)C(=O)O` [Compound 11, (2S)-5-carbamimidamido-2-({[1-(2,2-diphenylethyl)-2-oxo-1,2-dihydropyridin-3-yl]carbonyl}amino)pentanoic acid•TFA]: the IC50 is < 50 nM.

Consider `N=C(N)NCCC[C@H](NC(=O)c1cccn(CCC(c2ccccc2)c2ccccc2)c1=O)C(=O)O` [Compound 12, (2S)-5-carbamimidamido-2-({[1-(3,3-diphenylpropyl)-2-oxo-1,2-dihydropyridin-3-yl]carbonyl}amino)pentanoic acid•TFA], for which the half-inhibitory concentration (IC50) was < 50 nM.

Consider `N=C(N)NCCC[C@H](NC(=O)c1cccn(Cc2ccc3ccccc3c2)c1=O)C(=O)O` [Compound 13, (2S)-5-carbamimidamido-2-({[1-(2-naphthylmethyl)-2-oxo-1,2-dihydropyridin-3-yl]carbonyl}amino)pentanoic acid•TFA], for which the IC50 was < 50 nM.

For `N=C(N)NCCC[C@H](NC(=O)c1cccn(Cc2cccc3ccccc23)c1=O)C(=O)O` [Compound 14, (2S)-5-carbamimidamido-2-({[1-(1-naphthylmethyl)-2-oxo-1,2-dihydropyridin-3-yl]carbonyl}amino)pentanoic acid•TFA], the IC50 was < 50 nM.

Consider `N=C(N)NCCC[C@H](NC(=O)c1cccn(Cc2ccc3ccccc3n2)c1=O)C(=O)O` [Compound 15, (2S)-5-carbamimidamido-2-({[2-oxo-1-(quinolin-2-ylmethyl)-1,2-dihydropyridin-3-yl]carbonyl}amino)pentanoic acid•TFA], for which the IC50 was in the range of 50 to 500 nM.

Consider `CC1(C)CCC(C)(C)c2cc(Cn3cccc(C(=O)N[C@@H](CCCNC(=N)N)C(=O)O)c3=O)ccc21` [Compound 16, (2S)-5-carbamimidamido-2-[({2-oxo-1-[(5,5,8,8-tetramethyl-5,6,7,8-tetrahydro-2-naphthyl)methyl]-1,2-dihydropyridin-3-yl}carbonyl)amino]pentanoic acid•TFA], for which the IC50 was in the range of 500 to 20000 nM.

As to `N=C(N)NCCC[C@H](NC(=O)c1cccn(Cc2ccc3cc(F)ccc3c2)c1=O)C(=O)O` [Compound 17, (2S)-5-carbamimidamido-2-[({1-[(6-fluoro-2-naphthyl)methyl]-2-oxo-1,2-dihydropyridin-3-yl}carbonyl)amino]pentanoic acid•TFA], the IC50 was < 50 nM.

In the case of `COc1cc2ccccc2cc1Cn1cccc(C(=O)N[C@@H](CCCNC(=N)N)C(=O)O)c1=O` [Compound 18, (2S)-5-carbamimidamido-2-[({1-[(3-methoxy-2-naphthyl)methyl]-2-oxo-1,2-dihydropyridin-3-yl}carbonyl)amino]pentanoic acid•TFA], the concentration for half-maximal inhibition (IC50) was in the range of 50 to 500 nM.

For the compound `COc1ccc2cc(Cn3cccc(C(=O)N[C@@H](CCCNC(=N)N)C(=O)O)c3=O)ccc2c1` [Compound 19, (2S)-5-carbamimidamido-2-[({1-[(6-methoxy-2-naphthyl)methyl]-2-oxo-1,2-dihydropyridin-3-yl}carbonyl)amino]pentanoic acid•TFA], the half-inhibitory concentration (IC50) lay in the range of 50 to 500 nM.

Regarding `N=C(N)NCCC[C@H](NC(=O)c1cccn(Cc2ccccc2-c2ccccc2)c1=O)C(=O)O` [Compound 20, (2S)-2-({[1-(biphenyl-2-ylmethyl)-2-oxo-1,2-dihydropyridin-3-yl]carbonyl}amino)-5-carbamimidamidopentanoic acid•TFA], the IC50 is < 50 nM.

On to `N=C(N)NCCC[C@H](NC(=O)c1cccn(Cc2cccc(-c3ccccc3)c2)c1=O)C(=O)O` [Compound 21, (2S)-2-({[1-(biphenyl-3-ylmethyl)-2-oxo-1,2-dihydropyridin-3-yl]carbonyl}amino)-5-carbamimidamidopentanoic acid•TFA], for which the half-maximal inhibitory concentration (IC50) was in the range of 50 to 500 nM.

In the case of `N=C(N)NCCC[C@H](NC(=O)c1cccn(Cc2ccc(-c3ccccc3)cc2)c1=O)C(=O)O` [Compound 22, (2S)-2-({[1-(biphenyl-4-ylmethyl)-2-oxo-1,2-dihydropylidin-3-yl]carbonyl}amino)-5-carbamimidamidopentanoic acid], the IC50 is < 50 nM.

`N=C(N)NCCC[C@H](NC(=O)c1cccn(Cc2ccccc2Cc2ccccc2)c1=O)C(=O)O` [Compound 23, (2S)-2-({[1-(2-benzylbenzyl)-2-oxo-1,2-dihydropyridin-3-yl]carbonyl}amino)-5-carbamimidamidopentanoic acid•TFA]: the half-inhibitory concentration (IC50) was < 50 nM.

Consider `N=C(N)NCCC[C@H](NC(=O)c1cccn(Cc2cccc(Cc3ccccc3)c2)c1=O)C(=O)O` [Compound 24, (2S)-2-({[1-(3-benzylbenzyl)-2-oxo-1,2-dihydropyridin-3-yl]carbonyl}amino)-5-carbamimidamidopentanoic acid•TFA], for which the IC50 lay within 50 to 500 nM.

Turning to `N=C(N)NCCC[C@H](NC(=O)c1cccn(Cc2ccc(Cc3ccccc3)cc2)c1=O)C(=O)O` [Compound 25, (2S)-2-({[1-(4-benzylbenzyl)-2-oxo-1,2-dihydropyridin-3-yl]carbonyl}amino)-5-carbamimidamidopentanoic acid•TFA], the 50% inhibitory concentration (IC50) fell in the range of 50 to 500 nM.

For `N=C(N)NCCC[C@H](NC(=O)c1cccn(Cc2ccccc2-c2cccc3ccccc23)c1=O)C(=O)O` [Compound 26, (2S)-5-carbamimidamido-2-[({1-[2-(1-naphthyl)benzyl]-2-oxo-1,2-dihydropyridin-3-yl}carbonyl)amino]pentanoic acid•TFA], the IC50 was < 50 nM.

For the compound `N=C(N)NCCC[C@H](NC(=O)c1cccn(Cc2ccccc2-c2ccc3ccccc3c2)c1=O)C(=O)O` [Compound 27, (2S)-5-carbamimidamido-2-[({1-[2-(2-naphthyl)benzyl]-2-oxo-1,2-dihydropyridin-3-yl}carbonyl)amino]pentanoic acid•TFA], the IC50 was < 50 nM.

As a reminder, the IC50 is the midpoint of a concentration-inhibition curve.
